ChEMBL document CHEMBL5620353, “Novel antifungal triazoles with alkynyl-methoxyl side chains: Design, synthesis, and biological activity evaluation” (Eur J Med Chem, 2023)
In brackets after ≈: the same amount, converted by molar mass. Activity calls are given as the source filed them. No cut-off for these calls is given here.

Columns and labels:
Candida albicans [1] = test: Antifungal activity against Candida albicans SC5314 assessed as inhibition of fungal growth incubated for 48 hrs by microbroth dilution method; format: functional
Candida albicans [2] = test: Antifungal activity against Candida albicans 10231 assessed as inhibition of fungal growth incubated for 48 hrs by microbroth dilution method; format: functional
Nakaseomyces glabratus [3] = test: Antifungal activity against Candida glabrata 537 assessed as inhibition of fungal growth incubated for 48 hrs by microbroth dilution method; format: functional
Candida parapsilosis [4] = test: Antifungal activity against Candida parapsilosis 22019 assessed as inhibition of fungal growth incubated for 48 hrs by microbroth dilution method; format: functional; conditions: Lodderomyces parapsilosis
Pichia kudriavzevii = test: Antifungal activity against Candida krusei 4996 assessed as inhibition of fungal growth incubated for 48 hrs by microbroth dilution method; format: functional
Candida tropicalis = test: Antifungal activity against Candida tropicalis 8915 assessed as inhibition of fungal growth incubated for 48 hrs by microbroth dilution method; format: functional
Cryptococcus neoformans [5] = test: Antifungal activity against Cryptococcus neoformans 32,609 assessed as inhibition of fungal growth incubated for 72 hrs by microbroth dilution method; format: functional
Aspergillus fumigatus = test: Antifungal activity against Aspergillus fumigatus 7544 assessed as inhibition of fungal growth incubated for 72 hrs by microbroth dilution method; format: functional
Candida albicans [6] = test: Antifungal activity against fluconazole-resistant Candida albicans 901 assessed as inhibition of fungal growth incubated for 48 hrs by microbroth dilution method; format: functional
Candida albicans [7] = test: Antifungal activity against fluconazole-resistant Candida albicans 904 assessed as inhibition of fungal growth incubated for 48 hrs by microbroth dilution method; format: functional
[Candida] auris [8] = Antifungal activity against fluconazole-resistant Candida auris 891 assessed as inhibition of fungal growth incubated for 48 hrs by microbroth dilution method; format: functional; conditions: Candidozyma auris
[Candida] auris [9] = Antifungal activity against fluconazole-resistant Candida auris 918 assessed as inhibition of fungal growth incubated for 48 hrs by microbroth dilution method; format: functional; conditions: Candidozyma auris
[Candida] auris [10] = Antifungal activity against fluconazole-resistant Candida auris 919 assessed as inhibition of fungal growth incubated for 48 hrs by microbroth dilution method; format: functional; conditions: Candidozyma auris
Candida albicans [11] = test: Antifungal activity against Candida albicans SC5314 assessed as inhibition of fungal growth at 0.5 ug/ml incubated for 48 hrs by spot assay; format: functional, organism-based; conditions: dose 0.5 µg/ml
Candida albicans [12] = test: Antifungal activity against Candida albicans 10231 assessed as inhibition of fungal growth at 0.5 ug/ml incubated for 48 hrs by spot assay; format: functional, organism-based; conditions: dose 0.5 µg/ml
Candida albicans [13] = test: Antifungal activity against fluconazole-resistant Candida albicans 904 assessed as inhibition of fungal growth at 0.5 ug/ml incubated for 48 hrs by spot assay; format: functional, organism-based; conditions: dose 0.5 µg/ml
Candida parapsilosis [14] = test: Antifungal activity against Candida parapsilosis 22019 assessed as inhibition of fungal growth at 0.5 ug/ml incubated for 48 hrs by spot assay; format: functional, organism-based; conditions: dose 0.5 µg/ml
Nakaseomyces glabratus [15] = test: Antifungal activity against Candida glabrata 537 assessed as inhibition of fungal growth at 0.5 ug/ml incubated for 48 hrs by spot assay; format: functional, organism-based; conditions: dose 0.5 µg/ml
Cryptococcus neoformans [16] = test: Antifungal activity against Cryptococcus neoformans 32,609 assessed as inhibition of fungal growth at 0.5 ug/ml incubated for 48 hrs by spot assay; format: functional, organism-based; conditions: dose 0.5 µg/ml
[Candida] auris [17] = Antifungal activity against Candida auris 891 assessed as inhibition of fungal growth at 0.5 ug/ml incubated for 48 hrs by spot assay; format: functional, organism-based; conditions: Candidozyma auris, dose 0.5 µg/ml
Candida albicans [18] = test: Antifungal activity against Candida albicans SC5314 assessed as reduction in fungal growth and viability at 2 ug/ml incubated for 48 hrs by spot assay; format: functional, organism-based; conditions: dose 2.0 µg/ml
Candida albicans [19] = test: Antifungal activity against Candida albicans 904 assessed as reduction in fungal growth and viability at 2 ug/ml incubated for 48 hrs by spot assay; format: functional, organism-based; conditions: dose 2.0 µg/ml
Candida albicans [20] = test: Antifungal activity against Candida albicans SC5314 assessed as inhibition of fungal growth at 4 ug/ml measured after 12 hrs by optical density based method; format: functional, organism-based; conditions: dose 4.0 µg/ml
Candida albicans [21] = test: Inhibition of biofilm formation in Candida albicans SC5314 at 64 ug/ml incubated for 24 hrs by XTT reduction assay relative to control; format: functional
Candida albicans [22] = test: Antibiofilm activity against Candida albicans SC5314 preformed biofilms at 4 ug/ml incubated for 24 hrs by XTT reduction assay relative to control; format: functional; parameters: scale not given: the % may be the effect or the level left; conditions: dose 4 µg/ml
Candida albicans [23] = test: Antibiofilm activity against Candida albicans SC5314 preformed biofilms at 16 ug/ml incubated for 24 hrs by XTT reduction assay relative to control; format: functional; parameters: scale not given: the % may be the effect or the level left; conditions: dose 16 µg/ml
Candida albicans [24] = test: Antibiofilm activity against Candida albicans SC5314 preformed biofilms at 64 ug/ml incubated for 24 hrs by XTT reduction assay relative to control; format: functional; parameters: scale not given: the % may be the effect or the level left; conditions: dose 64 µg/ml
Candida albicans [25] = test: Antifungal activity against Candida albicans assessed as reduction in hyphal length at 16 ug/ml; format: functional, organism-based; conditions: dose 16.0 µg/ml
Candida albicans [26] = test: Antifungal activity against Candida albicans assessed as increase in pseudohyphae at 16 ug/ml; format: functional, organism-based; conditions: dose 16.0 µg/ml
[27] = molecular target: Lanosterol 14-alpha demethylase (Candida albicans (strain SC5314 / ATCC MYA-2876) (Yeast), UniProt P10613); test: Inhibition of Lanosterol 14-alpha demethylase in Candida albicans SC5314 assessed as reduction in ergosterol level at 8 ug/ml incubated for 8 hrs by GC-MS analysis relative to control; conditions: at 8 µg/mL
[28] = Cytotoxicity against HUVEC cells assessed as cell survival at 128 ug/ml incubated for 24 hrs by CCK-8 assay relative to control; format: toxicity, cell-based; conditions: human, at 128 µg/mL, read-out: Survival
[29] = Selectivity index, ratio of IC50 for HUVEC cells to MIC for Candida albicans SC5314; format: toxicity; conditions: human, HUVEC cells versus Candida albicans SC5314; read-out: Selectivity Index
[30] = Selectivity index, ratio of IC50 for HUVEC cells to MIC for Candida glabrata 537; format: toxicity; conditions: human, HUVEC cells versus Candida glabrata 537; read-out: Selectivity Index
Candida albicans [31] = test: Antifungal activity against Candida albicans SC5314 infected in Galleria mellonella larvae assessed as delay in time of larval death at 8 mg/kg measured after 10 days post inoculation; format: functional, organism-based; conditions: time 10.0 day
Candida albicans [32] = test: Antifungal activity against Candida albicans SC5314 infected in Galleria mellonella larvae assessed as median survival time at 8 mg/kg measured after 10 days post inoculation; format: functional; conditions: time 10 day
Candida albicans [33] = test: Antifungal activity against Candida albicans SC5314 infected in Galleria mellonella larvae assessed as larval survival rate at 8 mg/kg measured after 10 days post inoculation relative to control; format: functional; conditions: SC5314, 240 h, time 10 day
Candida albicans [34] = test: Antifungal activity against Candida albicans SC5314 infected in Galleria mellonella larvae assessed as protection against fungal infection at 2 mg/kg measured after 10 days post inoculation; format: functional, organism-based; conditions: time 10.0 day
Saccharomyces cerevisiae [35] = test: Antifungal activity against recombinant Saccharomyces cerevisiae Y525 overexpressing CaMdr1 assessed as inhibition of fungal growth incubated for 48 hrs by microbroth dilution method; format: functional
Saccharomyces cerevisiae [36] = test: Antifungal activity against recombinant Saccharomyces cerevisiae Y570 overexpressing CaCdr1 assessed as inhibition of fungal growth incubated for 48 hrs by microbroth dilution method; format: functional
Saccharomyces cerevisiae [37] = test: Antifungal activity against recombinant Saccharomyces cerevisiae Y2411 overexpressing ScErg11 assessed as inhibition of fungal growth incubated for 48 hrs by microbroth dilution method; format: functional
Saccharomyces cerevisiae [38] = test: Antifungal activity against recombinant Saccharomyces cerevisiae Y2300 overexpressing ScErg11 assessed as inhibition of fungal growth incubated for 48 hrs by microbroth dilution method; format: functional
Saccharomyces cerevisiae [39] = test: Antifungal activity against recombinant Saccharomyces cerevisiae Y2301 overexpressing ScErg11 Y140F assessed as inhibition of fungal growth incubated for 48 hrs by microbroth dilution method; format: functional
Saccharomyces cerevisiae [40] = test: Antifungal activity against recombinant Saccharomyces cerevisiae Y2513 overexpressing ScErg11 Y140H assessed as inhibition of fungal growth incubated for 48 hrs by microbroth dilution method; format: functional
Saccharomyces cerevisiae [41] = test: Antifungal activity against recombinant Saccharomyces cerevisiae Y2374 overexpressing CgErg11 assessed as inhibition of fungal growth incubated for 48 hrs by microbroth dilution method; format: functional
Saccharomyces cerevisiae [42] = test: Antifungal activity against recombinant Saccharomyces cerevisiae Y2462 overexpressing ScErg11 ScNcp1 assessed as inhibition of fungal growth incubated for 48 hrs by microbroth dilution method; format: functional
Saccharomyces cerevisiae [43] = test: Antifungal activity against recombinant Saccharomyces cerevisiae Y2459 overexpressing CaErg11 CaCpr assessed as inhibition of fungal growth incubated for 48 hrs by microbroth dilution method; format: functional
Saccharomyces cerevisiae [44] = test: Antifungal activity against recombinant Saccharomyces cerevisiae Y2721 overexpressing CpErg11 CpCpr assessed as inhibition of fungal growth incubated for 48 hrs by microbroth dilution method; format: functional
Saccharomyces cerevisiae [45] = test: Antifungal activity against recombinant Saccharomyces cerevisiae Y2716 overexpressing CpErg11 Y132F CpCpr assessed as inhibition of fungal growth incubated for 48 hrs by microbroth dilution method; format: functional
Saccharomyces cerevisiae [46] = test: Resistance index, ratio of MIC for recombinant Saccharomyces cerevisiae Y525 overexpressing CaMdr1 to MIC for recombinant Saccharomyces cerevisiae Y2411 overexpressing ScErg11; format: functional
[47] = Cytotoxicity against HUVEC cells assessed as cell survival at <16 ug/ml incubated for 24 hrs by CCK-8 assay relative to control; format: toxicity, cell-based; conditions: human, dose < 16 µg/ml, read-out: Survival
[48] = Hemolytic activity in rabbit RBC at 32 ug/ml incubated for 1 hr by absorbance based analysis; format: toxicity, cell-based, Oryctolagus cuniculus, Erythrocyte; conditions: rabbit red blood cells, at 32 µg/mL, read-out: Activity

Chain of Lanosterol 14-alpha demethylase (P10613 whole entry): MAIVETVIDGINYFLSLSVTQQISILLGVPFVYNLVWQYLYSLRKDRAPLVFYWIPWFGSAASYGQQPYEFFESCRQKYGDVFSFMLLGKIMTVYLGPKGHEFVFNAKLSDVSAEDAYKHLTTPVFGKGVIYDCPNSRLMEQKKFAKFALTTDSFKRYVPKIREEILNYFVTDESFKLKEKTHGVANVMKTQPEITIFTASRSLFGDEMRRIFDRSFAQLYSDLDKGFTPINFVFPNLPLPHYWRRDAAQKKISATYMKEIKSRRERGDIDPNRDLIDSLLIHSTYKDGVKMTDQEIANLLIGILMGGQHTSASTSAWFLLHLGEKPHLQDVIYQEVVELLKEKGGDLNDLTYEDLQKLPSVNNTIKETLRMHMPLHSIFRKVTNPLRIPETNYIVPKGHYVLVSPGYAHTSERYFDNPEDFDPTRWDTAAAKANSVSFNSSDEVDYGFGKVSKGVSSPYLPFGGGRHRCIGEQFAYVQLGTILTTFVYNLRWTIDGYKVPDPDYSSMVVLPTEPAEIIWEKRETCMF

`OC(Cn1cncn1)(Cn1cncn1)c1ccc(F)cc1F` [FLUCONAZOLE] gave an MIC (Candida albicans [1]) of 0.5 µg/mL (≈ 1.63 µM), an MIC (Candida albicans [2]) of over 64 µg/mL and an MIC (Nakaseomyces glabratus [3]) of 1 µg/mL (≈ 3.27 µM). It also gave an MIC (Candida parapsilosis [4]) of 4 µg/mL (≈ 13.1 µM), an MIC (Pichia kudriavzevii) of 64 µg/mL (≈ 209 µM) and an MIC (Candida tropicalis) of over 64 µg/mL. The MIC (Cryptococcus neoformans [5]) was 2 µg/mL (≈ 6.53 µM), the MIC (Aspergillus fumigatus) was over 64 µg/mL and the MIC (Candida albicans [6]) was over 256 µg/mL. For the same compound, the MIC (Candida albicans [7]) was over 256 µg/mL, the MIC ([Candida] auris [8]) was over 256 µg/mL and the MIC ([Candida] auris [9]) was over 256 µg/mL. For the same compound, the MIC ([Candida] auris [10]) was over 256 µg/mL, the Activity (Candida albicans [11]) was “inactive” and the Activity (Candida albicans [12]) was “inactive”. For the same compound, the Activity (Candida albicans [13]) was “inactive”, the Activity (Candida parapsilosis [14]) was “inactive” and the Activity (Nakaseomyces glabratus [15]) was “inactive”. The Activity (Cryptococcus neoformans [16]) was “inactive”, the Activity ([Candida] auris [17]) was “inactive” and the Activity (Candida albicans [18]) was “Active”. For the same compound, the Activity (Candida albicans [19]) was “Active”, the Activity (Candida albicans [20]) was “Active” and the inhibition at 64 µg/mL (Candida albicans [21]) was 26.1%. The Activity (Candida albicans [22]) was 31.38%, the Activity (Candida albicans [23]) was 34.47% and the Activity (Candida albicans [24]) was 33.39%. For the same compound, the Activity (Candida albicans [25]) was “Active”, the Activity (Candida albicans [26]) was “Active” and the “inhibition (INH)” value [27] was ~ 100%. For the same compound, the viability at 24 h, 128 ug/ml [28] was 43.7%, the selectivity ratio [29] was 100 and the selectivity ratio [30] was 50. The Activity (Candida albicans [31]) was “Active”, the MST (Candida albicans [32]) was 10 days and the survival at 8 mg/kg (Candida albicans [33]) was 46.7%. The Activity (Candida albicans [34]) was “Active”, the MIC (Saccharomyces cerevisiae [35]) was 32 µg/mL and the MIC (Saccharomyces cerevisiae [36]) was over 64 µg/mL. The MIC (Saccharomyces cerevisiae [37]) was 1 µg/mL, the MIC (Saccharomyces cerevisiae [38]) was 4 µg/mL and the MIC (Saccharomyces cerevisiae [39]) was 8 µg/mL. It also gave an MIC (Saccharomyces cerevisiae [40]) of 8 µg/mL, an MIC (Saccharomyces cerevisiae [41]) of 4 µg/mL and an MIC (Saccharomyces cerevisiae [42]) of 8 µg/mL. For the same compound, the MIC (Saccharomyces cerevisiae [43]) was 2 µg/mL, the MIC (Saccharomyces cerevisiae [44]) was 4 µg/mL and the MIC (Saccharomyces cerevisiae [45]) was 32 µg/mL. It also gave a Ratio (Saccharomyces cerevisiae [46]) of 32.
`C[C@@H]1[C@H](O)[C@@H](C)/C=C/C=C/C=C/C=C/C=C/C=C/C=C/[C@H](O[C@@H]2O[C@H](C)[C@@H](O)[C@H](N)[C@@H]2O)C[C@@H]2O[C@](O)(C[C@@H](O)C[C@@H](O)[C@H](O)CC[C@@H](O)C[C@@H](O)CC(=O)O[C@H]1C)C[C@H](O)[C@H]2C(=O)O` [AMPHOTERICIN B] gave a viability at 24 h [47] of 50%, a viability at 24 h, 128 ug/ml [28] of 26.1% and a hemolysis at 1 h, 32 ug/ml [48] of over 50%.
